The test system of series [1] is Sprague-Dawley rats. Kind of series: Inhibition of phosphate and sodium absorption in the intestine of rats by a single dose. Format: in vivo, rat. To be noted: normal rats. As to the method:
Compound D1-P1-S was evaluated by measuring urinary phosphorus, urinary sodium concentration and fecal form.
Six-week-old Sprague-Dawley rats were purchased from Beijing Vital River Laboratory Animal Technology Co., Ltd. Two animals per cage were placed in SPF class animal rooms for acclimatization for about a week. Throughout the study period, animals were fed feed and water freely and the light cycle was 12 h light/12 h dark. Animal groups: vehicle group, n=5; tenapanor 0.3 mg/kg group, n=5; D1-P1-S 0.03 mg/kg group, n=5; D1-P1-S 0.1 mg/kg, n=5; D1-P1-S 0.3 mg/kg, n=5; D1-P1-S1.0 mg/kg, n=5.
On the day of the experiment, after 8 hours of fasting, the animals were administered the test compound or solvent (0.5% Tween 80+99.5% distilled water) by gavage. The animals were then transferred into metabolic cages for single-cage feeding, and the feed was restored. After 16 hours of administration, urine samples were collected and food consumption was recorded, and the fecal form in the collection funnel was evaluated by two independent observations. Standard for fecal form score: 1, normal pellets; 2, slightly soft feces (pellets adhered to the side wall of the collector due to moisture); 3, soft feces (loss the normal shape of the pellets); 4, loose and amorphous (completely loss shape, with blot pattern); 5, diarrhea (watery feces). Fecal form score (FFS) in rats was determined by averaging two independent observation scores for all rats within the same group (n=5); the vehicle group mean was 1.
The urine was centrifuged at 3220 g for 5 minutes at 4° C., and the urinary phosphorus concentration (phosphomolybdic acid UV endpoint colorimetric method) and urinary sodium concentration (ion selective electrode method) were measured.
(§1) Results were indicated as mean±standard error (Means±SEM). Urinary phosphorus excretion amount (or urinary sodium excretion amount) in rats was standardized corrected against respective dietary phosphorus (or sodium) intake, and the formula was: standardized correction value of urinary phosphorus excretion amount (indicated as nP)=urinary phosphorus excretion amount÷dietary phosphorus intake amount; standardized correction value of urinary sodium excretion amount (indicated as nNa)=urinary sodium excretion amount÷dietary sodium intake amount; fecal form score was analyzed by monofactorial variance, and verified by non-parametric test. *, p<0.05; **, p<0.01; * p<0.001; ****, p<0.0001.

The subject of series [2] is Sprague-Dawley rats. The series is described as follows: Effects of multiple administrations on serum phosphorus concentration in rats. Format: in vivo, rat. To be noted: for 24 h nP, course: after 15 days. Here is the method:
Compound D1-P1-S was evaluated by measuring serum phosphorus concentration, urinary phosphorus, urinary sodium concentration and fecal form in rats.
Six-week-old Sprague-Dawley rats were purchased from Beijing Vital River Laboratory Animal Technology Co., Ltd. Two animals per cage were placed in SPF class animal rooms for acclimatization for about a week. Throughout the study period, animals were fed feed and water freely and the light cycle was 12 h light/12 h dark. Animal groups: vehicle group, n=5; Tenapanor 0.05 mg/kg, n=5; D1-P1-S 0.01 mg/kg, n=5; D1-P1-S 0.05 mg/kg, n=5; D1-P1-S 0.5 mg/kg, n=5; D1-P1-S 1.0 mg/kg, n=5.
After the start of the experiment, the feeding rhythm of the rats was adjusted to diurnal feeding by fasting overnight for 16 hours and recovering feed for 8 hours during the day. After the administration started, the test compound or the solvent (0.5% Tween 80+99.5% distilled water) was gavaged twice a day during the feeding period, with an interval of 4 hours, for 14 consecutive days. Animal body weight and food consumption were measured every day, serum phosphorus concentration (including baseline value before administration), 24-hour urinary phosphorus excretion amount, and 24-hour urinary sodium excretion amount were measured 1-2 times a week, and feces form in the collection funnel was scored (through two independent observations to assess fecal form). Standard for fecal form score: 1, normal pellets; 2, slightly soft feces (pellets adhered to the side wall of the collector due to moisture); 3, soft feces (loss the normal shape of the pellets); 4, loose and amorphous (completely loss shape, with blot pattern); 5, diarrhea (watery feces). Fecal form score (FFS) in rats was determined by averaging two independent observation scores for all rats within the same group (n=5); the vehicle group mean was 1.
After standing at room temperature for 2 hours, the blood was centrifuged at 4500 g for 10 minutes at 4° C.; and the urine was centrifuged at 3220 g for 5 minutes at 4° C., and the serum phosphorus concentration and urinary phosphorus concentration (phosphomolybdic acid UV endpoint colorimetric method), urinary sodium concentration (indirect ion electrode method) were measured.
as §1, with “error (Means±SEM), n=5 animals/group.” for “error (Means±SEM).”, “by two-way” for “by monofactorial”, “p<0.01; ***,” for “p<0.01; *”, “****, p<[…].” for “****, p<0.0001.”

Setting [3] is: 1 day of treatment at 0.01, 0.05, 0.5 and 1.0 mg/kg.

Regarding `CN1Cc2c(Cl)cc(Cl)cc2C(c2ccc3cn(CCOCCOCCNC(=O)NCCCCNC(=O)NCCOCCOCCn4cc5ccc([C@@H]6CN(C)Cc7c(Cl)cc(Cl)cc76)cc5n4)nc3c2)C1` (stereo partly drawn) [Embodiment D1-P1-S], the “urinary phosphorus excretion amount, dose dependence” value in the series with Sprague-Dawley rats [1] (single gavage 0.03-1.0 mg/kg, urine collected after 16 hours) is given as “dose-effect relationship”. The “urinary sodium excretion amount” value in the series on Sprague-Dawley rats [1] (single gavage, 16 h urine) is recorded as “significantly reduce”. In the series on Sprague-Dawley rats [1] (single gavage, doses of 0.3 mg/kg and 1.0 mg/kg, 16 h urine), the “urinary phosphorus excretion amount” value is “significantly reduce”. Besides, in the series with Sprague-Dawley rats [1] (single gavage, same dose (0.3 mg/kg)), the “effect in reducing urinary phosphorus excretion amount compared with Tenapanor” value is given as “better than Tenapanor”. The “water content in rat feces (fecal form)” value with Sprague-Dawley rats [1] (single gavage, with increasing dose) was “tendency of increasing”. The “24 h nNa (urinary sodium excretion / dietary sodium intake) vs solvent group” value in the series with Sprague-Dawley rats [2] (setting [3]) is given as “decreased significantly”. In addition, the “24 h nP (urinary phosphorus excretion / dietary phosphorus intake) vs solvent group” value in the series on Sprague-Dawley rats [2] (setting [3]) is listed as “tended to decrease”. In addition, the “fecal form score vs solvent control” value with Sprague-Dawley rats [2] (1 day of treatment at 0.05, 0.5 and 1.0 mg/kg) is “significantly increased”. Further, the “24 h nP vs solvent group” value in the series on Sprague-Dawley rats [2] (1 day of treatment, 1.0 mg/kg) is “significantly decreased”; in the series with Sprague-Dawley rats [2] (10 days of treatment at 0.01, 0.05, 0.5 and 1.0 mg/kg), “decreased significantly”. In addition, in the series with Sprague-Dawley rats [2] (after 10 days of treatment, 0.01 mg/kg and 0.05 mg/kg), the “24 h nNa” value is given as “increasing trend”. Also, the figures for the “24 h nP, course” value in the series with Sprague-Dawley rats [2] and with Sprague-Dawley rats [2] (low dose group (0.01 mg/kg)) were “tended to be stable” and “tended to increase”, respectively. Besides, the “serum phosphorus, course after 10 days” value in the series with Sprague-Dawley rats [2] (all dose groups except the highest dose group of 1.0 mg/kg) is listed as “tended to be stable”. The “serum phosphorus concentration vs solvent control” value in the series on Sprague-Dawley rats [2] (gavage twice a day, 0.5 mg/kg or 1.0 mg/kg for 4 days) is “significantly decreased”; with Sprague-Dawley rats [2] (twice a day, 10 days of treatment at 0.01, 0.05, 0.5, 1.0 mg/kg) it was “decreased significantly”. The loose feces entry is recorded as “more severe loose feces” in the series on Sprague-Dawley rats [2] (high doses of 0.5 mg/kg and 1.0 mg/kg, observed less often as administration continued); “no rats had loose feces” in the series on Sprague-Dawley rats [2] (low dose of 0.01 mg/kg).

These data come from US20240082406A1, “BENZOHETEROCYCLE SUBSTITUTED TETRAHYDROISOQUINOLINE COMPOUND” (SHANGHAI JEMINCARE PHARMACEUTICAL CO., LTD, priority 2020, published 2024).
